From US20250017834A1, “SUNSCREEN COMPOSITIONS COMPRISING IMINE ANALOGS OF A SUNSCREEN COMPRISING A KETONE” (Curie Co. Inc., priority 2020, published 2025)

Legend:
Type in all cases: physicochemical
[1] = UV/Vis spectral properties (UVA, UVB and visible absorption), Cary-50 spectrophotometer; conditions: for UV absorption properties compared to oxybenzone: 5 mM or 0.05 mM, FIG. 1; for Absorption spectra compared to oxybenzone: 5 mM (N-Boc-Imine-6 also 0.05 mM), FIG. 3
Protocol: Imine-1, Imine-2, and Imine-3 were synthesized, purified, and isolated (see above). All three compounds were separately dissolved in acetonitrile to a final concentration of 5 mM (FIG. 1) or 0.05 mM (FIG. 1, inset) and analyzed by UV/Vis (Cary-50 Spectrophotomer). The spectral properties were compared to oxybenzone in acetonitrile.
Carbamate-1, first described in U.S. Pat. No. 5,490,980A, was synthesized, purified, and isolated (see above). Carbamate-1 was dissolved in acetonitrile to a final concentration of 0.05 mM and analyzed by UV/Vis (Cary-50 Spectrophotomer). The spectral properties were compared to oxybenzone in acetonitrile at a final concentration of 0.05 mM.
Imine-4, Imine-5, and N-Boc-Imine-6 were synthesized, purified, and isolated (see above). All three compounds were separately dissolved in acetonitrile to a final concentration of 5 mM (FIG. 3) and analyzed by UV/Vis (Cary-50 Spectrophotomer). N-Boc-Imine-6 was diluted in acetonitrile to a final concentration of 0.05 mM (FIG. 3, inset) and analyzed by UV/Vis. […] Spectral properties were compared to oxybenzone in acetonitrile at the same concentration.
To understand the solution stability of the Boc-protected imines in protic solvent, N-Boc-Imine-6 was prepared in ethanol in the presence of catalytic glacial acetic acid. Briefly, to a solution of oxybenzone (0.10 g, 0.438 mmol, 1 eq) and N-Boc-1,6-hexanediamine (0.094 g, 0.43 mmol, 1 eq) in ethanol (0.3 mL) was added catalytic glacial acetic acid (1 μL). The reaction mixture was agitated at 900 rpm at 70° C. for 16 hr and monitored by LCMS. […] The reaction was then diluted in ethanol to final concentration of 0.04 mM and analyzed by UV/Vis spectroscopy.
N-Boc-Imine-8 and Imine-8 was synthesized, purified, and isolated (see above). N-Boc-Imine-8 and Imine-8 were dissolved in ethanol to a final concentration of 0.032 mM and 8 mM, respectively (FIG. 6) and analyzed by UV/Vis. (Cary-50 Spectrophotomer). Spectral properties were compared to sulisobenzone in ethanol at similar concentration.
Imine-10 was first dissolved in methyl tert-butyl ether and then diluted in ethanol to a final concentration of 5 mM and 0.04 mM (FIG. 7) and analyzed by UV/Vis. (Cary-50 Spectrophotomer). Spectral properties were compared to oxybenzone at similar concentration.

[2] = Solubility in acetonitrile
[3] = Solution stability of Boc-protected imine in protic solvent (ethanol), LCMS and UV/Vis; conditions: 70° C., over 24 hours, catalytic glacial acetic acid
Protocol: To understand the solution stability of the Boc-protected imines in protic solvent, N-Boc-Imine-6 was prepared in ethanol in the presence of catalytic glacial acetic acid. Briefly, to a solution of oxybenzone (0.10 g, 0.438 mmol, 1 eq) and N-Boc-1,6-hexanediamine (0.094 g, 0.43 mmol, 1 eq) in ethanol (0.3 mL) was added catalytic glacial acetic acid (1 μL). The reaction mixture was agitated at 900 rpm at 70° C. for 16 hr and monitored by LCMS. Full reaction of the starting material to a single product peak was observed by LCMS indicating completion. The reaction was then diluted in ethanol to final concentration of 0.04 mM and analyzed by UV/Vis spectroscopy. […] Additionally, the Boc-protecting group remained intact throughout the reaction and UV/Vis analysis.

Q: Which “UV filter properties compared to oxybenzone” value ([1]; acetonitrile, 0.05 mM, FIG. 2) does the source give for `COc1ccc(C(=O)c2ccccc2)c(OC(=O)NCCCCCCNC(=O)OC(C)(C)C)c1` [Carbamate-1, reference compound] here?
A: UVA blocking was reduced

Q: Which “UV absorption properties compared to oxybenzone” value ([1]; acetonitrile) does the source give for `COc1ccc(/C(=N/Cc2ccccc2)c2ccccc2)c(O)c1` [Imine-1] here?
A: improved both UVA-1, UVA-2, and UVB absorption properties

Q: With `COc1ccc(/C(=N/c2ccccc2)c2ccccc2)c(O)c1` [Imine-2] as the compound, how does the “UV absorption properties compared to oxybenzone” value ([1]; acetonitrile) read?
A: improved both UVA-1, UVA-2, and UVB absorption properties

Q: For `COc1ccc(/C(=N/O)c2ccccc2)c(O)c1` [Imine-3], which “UV absorption properties compared to oxybenzone” value ([1]; acetonitrile) is on record?
A: loss in the UVA blocking and reduction in UVB blocking

Q: With `COc1ccc(/C(=N/C(CCC(N)=O)C(=O)O)c2ccccc2)c(O)c1` (centres unmarked) [Imine-5] as the compound, how does the “Absorption spectra compared to oxybenzone” value ([1]; acetonitrile) read?
A: encompassed the UVA-1, UVA-2, and UVB regions as well as the visible region of the spectrum (greater than 400 nm)

Q: With `COc1ccc(/C(=N/CCCCCCN)c2ccccc2)c(O)c1` [Imine-6] as the compound, how does the Solubility in acetonitrile [2] read?
A: poor solubility

Q: Which “Absorbance compared to sulisobenzone” value ([1]; ethanol, N-Boc-Imine-8 0.032 mM, Imine-8 8 mM, FIG. 6) does the source give for `COc1cc(O)c(/C(=N\CCCCCCN)c2ccccc2)cc1S(=O)(=O)O` [Imine-8] here?
A: retained absorbance in the UVB region and extended absorbance into the UVA region

Q: Which “Absorbance spectra of DHHB-derived imines” value ([1]; data not shown) does the source give for `CCCCCCOC(=O)c1ccccc1/C(=N/CCCCCCN)c1cccc(N(CC)CC)c1O` [Imine-9] here?
A: red shift of the absorbance spectra, which extends to the visible region

Q: Which “Solution stability without reversion to starting ketone and amine” value [3] does the source give for `COc1ccc(/C(=N/CCCCCCNC(=O)OC(C)(C)C)c2ccccc2)c(O)c1` [N-Boc-Imine-6] here?
A: stable

Q: And the “Absorption spectra compared to oxybenzone” value ([1]; acetonitrile)?
A: encompassed the UVA-1, UVA-2, and UVB regions as well as the visible region of the spectrum (greater than 400 nm)

Q: And the “Absorption spectrum in ethanol” value ([1]; ethanol, 0.04 mM, reaction mixture diluted, FIG. 4)?
A: encompasses the UVA and UVB regions as well as the visible region of the spectrum (greater than 400 nm)
